Data taken from PMC8944748, “Kojic Acid Showed Consistent Inhibitory Activity on Tyrosinase from Mushroom and in Cultured B16F10 Cells Compared with Arbutins” (Antioxidants, 2022).
Entries after “also recorded” stand apart in the source; their conditions may differ.

Legend:
[1] = system: three-dimensional human skin model; design: method as in PMID 15056856; settings: cited from earlier work
[2] = system: diphenolase of mushroom tyrosinase (MTYR); experiment: MTYR diphenolase activity assay (L-DOPA as substrate, dopachrome at 475 nm); format: biochemical; settings: L-DOPA
Description: L-tyrosine and L-DOPA were used as the substrates to test the monophenolase activity and diphenolase activity, respectively. Freshly prepared tyrosinase and substrate solutions were used in this experiment. For air-saturated solutions, a temperature of 25 °C and pH of 6.8 was maintained throughout the study. All assays were performed in triplicate. […] Additionally, three concentrations of every compound were selected to present progress curves. Once the substrate was added in reaction system, the formation of dopachrome was immediately measured at 475 nm for 25 min at 1 min intervals.

[3] = target: diphenolase of mushroom tyrosinase (MTYR); experiment: Kinetic analysis of MTYR diphenolase (Lineweaver-Burk plot); format: biochemical
Description: (§1) The concentration of enzyme was fixed, while the concentration of substrate was changed. […] When determining inhibition type of monophenolase, the concentration of kojic acid were 7.5, 30, and 120 µM. […] The concentrations of deoxyarbutin were 3.75, 15, and 60 µM. […] The concentrations of deoxyarbutin were 7.5, 30, and 120 µM. Once the substrate was added to the reaction system, the formation of dopachrome was immediately detected at 475 nm once every minute for 30 min. Steady state rate (V0) was defined as the slope of the linear range of progress curves, also called the dopachrome accumulation curve. The Km (substrate concentration that yield a half-maximal velocity) and Vmax (maximum velocity) of tyrosinase were determined by Michaelis–Menten equation. Lineweaver–Burk plot was used to display the data.

[4] = system: T1, B16F10 cellular tyrosinase (BTYR); experiment: B16F10 cellular tyrosinase (BTYR) activity, L-DOPA oxidase activity of lysate after treatment of cells; format: cell-based, mouse; settings: 48 h, percentage of control 2
T1 construct: The supernatant was used as the BTYR solution; endogenous in cells; host or cells: B16F10 mouse melanoma cells, α-MSH stimulated
Description: (§2) Measurement of B16F10 cellular tyrosinase (BTYR) activity, melanin content, and cell viability were the same as our previous study. Blank group (control 1) was the treatment containing cells and medium. Control group (control 2) was the treatment containing cells, medium, and α-MSH. Compound groups were the treatments containing cells, medium, α-MSH, and related compounds. Experiments were performed at least in triplicate.
(§3) B16F10 mouse malignant melanoma cell line from Stem Cell Bank (Chinese Academy of Sciences, Shanghai, China) were cultured in DMEM supplemented with 10% fetal bovine serum (FBS; Gibco, Grand Island, NV, USA) and antibiotics (100 U/mL penicillin and 100μg/mL streptomycin) in a humidified atmosphere of 5% CO2 at 37 °C. B16F10 cells at the exponential phase were adjusted for cell density and used in the following assay.
The BTYR activity was measured as the L-DOPA oxidase activity. B16F10 cells were seeded and incubated for 24 h in 24-well cell culture plates. Then, they were treated with 50 µL of 1 µM α-MSH and different molarities of compounds for another 48 h. After being washed twice with cold D-PBS and lysed with a lysis buffer (P0013J) containing 1% Triton X-100 for 30 min at −20 °C, the lysates were centrifuged at 12,000 rpm for 10 min at 4 °C. The supernatant was used as the BTYR solution. The reaction mixture, containing 50 μL of cell lysate supernatant and 50 μL of 5 mM L-DOPA, was incubated at 37 °C for 1 h and the level of dopachrome formation was measured spectrophotometrically at 475 nm. Lysis buffer was used as the control. The BTYR activity was calculated as a percentage of the control.

[5] = target: monophenolase of mushroom tyrosinase (MTYR); experiment: Kinetic analysis of MTYR monophenolase (Lineweaver-Burk plot); format: biochemical
Description: as §1

B16F10 cells = experiment: Cellular melanin content of B16F10 cells stimulated by α-MSH; format: cell-based, mouse; settings: 48 h, percentage of control 2
Description: as §2, §3
Briefly, B16F10 cells were treated with compounds as in Section 2.4.2. After being washed with PBS and dissolved in 1 M NaOH containing 10% DMSO for 1 h at 80 °C, the cell lysates were centrifuged at 12,000 rpm for 10 min. 150 μL of supernatant was transferred to 96-well plates and the absorbance was measured at 405 nm. The melanin content is expressed as a percentage of the control.

[6] = Cell viability of B16F10 cells, CCK-8 assay; format: cell-based, mouse; settings: mouse, B16F10 melanoma cells, percentage of the control
Description: Blank group (control 1) was the treatment containing cells and medium. […] Compound groups were the treatments containing cells, medium, α-MSH, and related compounds. Experiments were performed at least in triplicate. […] B16F10 cells at the exponential phase were adjusted for cell density and used in the following assay. […] Cells were seeded into 96-well plates at a density of 1 × 10^4 cells/well and incubated for 24 h. Then, the cells were treated with different concentrations of compounds for 48 h. After rinsing once with D-PBS, 100 uL DMEM containing 10% CCK-8 was added and incubated for another 1 h. The absorbance values of the solution at 450 nm were measured. The cell viability is expressed as a percentage of the control.

[7] = system: monophenolase of mushroom tyrosinase (MTYR); experiment: MTYR monophenolase activity assay (L-tyrosine as substrate, dopachrome at 475 nm); format: biochemical
Description: L-tyrosine and L-DOPA were used as the substrates to test the monophenolase activity and diphenolase activity, respectively. Freshly prepared tyrosinase and substrate solutions were used in this experiment. For air-saturated solutions, a temperature of 25 °C and pH of 6.8 was maintained throughout the study. All assays were performed in triplicate. In flat-bottom 96-well plates, the reaction media was 200 μL. […] Once the substrate was added in reaction system, the formation of dopachrome was immediately measured at 475 nm for 30 min at 1 min intervals. The concentrations of kojic acid were 7.5, 15, 30, 60, and 120 μM. The concentrations of α-arbutin were 480, 960, 2000, 4000, and 8000 μM. The concentrations of β-arbutin were 240, 480, 960, 2000, and 4000 μM. […] These concentrations were used to determine the progress curves and inhibition rates of monophenolase. […] In the formula, 'negative control' is the treatment without sample; 'blank control' is the treatment without sample and substrate; 'sample' is the treatment including all solutions; and 'sample control' is the treatment without substrate but including sample. If the inhibition rate was negative, it meant the tyrosinase was activated. The activation rate was the absolute value of inhibition rate.

MTYR monophenolase = target: MTYR monophenolase; design: method as in PMID 28493937; settings: read-out: IC50 on the inhibitory activity of MTYR monophenolase; cited from earlier work
[8] = system: tyrosinase diphenolase from B16 mouse melanoma cells; design: method as in PMID 7765966; settings: cited from earlier work
[9] = system: diphenolase activity of MTYR; design: method as in PMID 7765966; settings: α-arbutin below 10 mM; cited from earlier work
[10] = change with increasing compound molarity

- lag time on diphenolase activity ([2]; progress curves): no lag time
- Kinetic analysis on diphenolase Inhibition type ([3]; Lineweaver-Burk plot): uncompetitive activator
- Kinetic analysis on diphenolase Km [3, 10]: increased
- Kinetic analysis on diphenolase Vmax [3, 10]: increased
- Kinetic analysis on monophenolase Inhibition type ([5]; Lineweaver-Burk plot): competitive inhibitor
- Kinetic analysis on monophenolase Km [5, 10]: increased
- Kinetic analysis on monophenolase Vmax [5, 10]: remained constant
- lag time for monophenolase activity ([7]; L-tyrosine, progress curves): extended in a molarity-dependent manner
- IC50 ([7]; substrate L-tyrosine 2 mM, MTYR 300 U/mL, 25 °C, pH 6.8): 6.5 ± 0.137 mM
SMILES: OC[C@H]1O[C@H](Oc2ccc(O)cc2)[C@H](O)[C@@H](O)[C@@H]1O [α-arbutin]
- inhibition of melanin synthesis [1]: 60%
- effect on diphenolase activity of MTYR ([2]; 30-8000 µM): prompted tyrosinase activity in a dose-dependent manner
- tyrosinase activity of B16F10 cells stimulated by α-MSH ([4]; 43.8 µM): 91 ± 4%
- tyrosinase activity of B16F10 cells stimulated by α-MSH ([4]; 87.5 µM): 88 ± 4%
- tyrosinase activity of B16F10 cells stimulated by α-MSH ([4]; 175 µM): 90 ± 5%
- tyrosinase activity of B16F10 cells stimulated by α-MSH ([4]; 350 µM): 93 ± 5%
- tyrosinase activity of B16F10 cells stimulated by α-MSH ([4]; 700 µM): 86 ± 5%
- melanin content of B16F10 cells stimulated by α-MSH (B16F10 cells; 43.8 µM): 95 ± 11%
- melanin content of B16F10 cells stimulated by α-MSH (B16F10 cells; 87.5 µM): 91 ± 5%
- melanin content of B16F10 cells stimulated by α-MSH (B16F10 cells; 175 µM): 92 ± 3%
- melanin content of B16F10 cells stimulated by α-MSH (B16F10 cells; 350 µM): 87 ± 5%
- melanin content of B16F10 cells stimulated by α-MSH (B16F10 cells; 700 µM): 81 ± 3%
- viability at 48 h, 43.8 µM ([6]; 43.8 µM): 108 ± 5%
- viability at 48 h, 87.5 µM ([6]; 87.5 µM): 113 ± 7%
- viability at 48 h, 175 µM ([6]; 175 µM): 118 ± 8%
- viability at 48 h, 350 µM ([6]; 350 µM): 127 ± 10%
- viability at 48 h, 700 µM ([6]; 700 µM): 145 ± 14%
- IC50 (MTYR monophenolase): 8 mM
- potency relative to β-arbutin as inhibitor of tyrosinase from B16 mouse melanoma [8]: 10 times
- effect on diphenolase activity of MTYR [9]: did not inhibit; also recorded: does not inhibit
